Experimental data published in patent US20050181117A1, “Stent coating method” (Medtronic Vascular, Inc., priority 2003, published 2005).

Test: percent drug eluted over time from coated stent
Assay type: physicochemical
Details: base coat podophyllotoxin, Cyclops-12, in THF; Cyclops-9 cap coat with THF as cap coat solvent (FIG. 6) vs acetone (FIG. 5)
Excerpt: The cap coating examples may be compatible with a variety of base coats of the present invention. In one embodiment, the cap coat provided by example 9 (e.g., Cyclops-9 in acetone) may be used with a base coat provided by example 6 (e.g., Resten-NG, PVPP, in methanol-water mix). The use of a cap coat may influence the release profile of the therapeutic agent, or drug. […] The stent is base coated with a Resten-NG, PVPP in methanol/water mixed solvent and (optionally) cap coated with a Cyclops-9 in acetone mixture.
In another embodiment, the cap coat provided by example 9 (e.g., Cyclops-9 in acetone or THF) may be used with a base coat provided by example 8 (e.g., podophyllotoxin, Cyclops-12, in THF). Depending on the solvent chosen for the cap coat (e.g., acetone or THF), a different drug release profile may be obtained. […] Thus, the drug release profile may be altered by using a different cap coat solvent.

## COc1cc([C@@H]2c3cc4c(cc3[C@H](O)[C@H]3COC(=O)[C@H]23)OCO4)cc(OC)c1OC [podophyllotoxin]
  elution rate (percent drug eluted over time): marked increase in elution rate
